In the oligonucleotide strings, read from the 5' end, every base follows the letter of its sugar. An asterisk marks phosphorothioate; unmarked linkages are phosphodiester. Other units and linkages are bracketed, terminal groups are in braces. A string of capitals states the bases alone. d = 2'-deoxy (DNA); m = 2'-O-methyl
Each substance was assayed against cGAS (Homo sapiens, UniProt Q8N884) (assay: ISD70-driven IP-10 (and IFN-β) production in THP-1 cells, ELISA). Settings: THP-1; 100 nM ASO overnight, then ISD70 2.5 μg/ml 7-8 h; percentage of ISD70 only.
Format: cell-based
Design: endogenous in cells; host or cells: THP-1 (undifferentiated)

cGAS, sequence (Q8N884 whole entry): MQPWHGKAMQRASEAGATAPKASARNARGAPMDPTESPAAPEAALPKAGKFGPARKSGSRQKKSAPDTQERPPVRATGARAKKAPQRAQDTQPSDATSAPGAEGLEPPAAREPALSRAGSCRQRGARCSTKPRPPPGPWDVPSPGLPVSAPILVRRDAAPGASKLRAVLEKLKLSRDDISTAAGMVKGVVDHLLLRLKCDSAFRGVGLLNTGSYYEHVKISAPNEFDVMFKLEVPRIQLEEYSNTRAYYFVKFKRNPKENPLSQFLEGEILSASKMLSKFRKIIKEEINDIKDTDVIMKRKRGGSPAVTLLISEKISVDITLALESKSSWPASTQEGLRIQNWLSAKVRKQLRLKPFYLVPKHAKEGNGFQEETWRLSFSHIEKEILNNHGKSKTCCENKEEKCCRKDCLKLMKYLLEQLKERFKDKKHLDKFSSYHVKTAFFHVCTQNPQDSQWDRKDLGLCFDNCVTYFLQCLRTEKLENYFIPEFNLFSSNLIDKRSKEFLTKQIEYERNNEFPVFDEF

Substance	cGAS-100 nM: averaged IP-10 levels relative to ISD70
mG*mG*mU*mC*mC*C*A*T*C*C*C*T*T*C*T*mG*mC*mU*mG*mC (GGUCCCATCCCTTCTGCUGC; sugars from the 5' end m5 d10 m5, all phosphorothioate, methylation of C not given here) [[LINC-PINT]103]	45.23%
mG*mG*mU*mC*mU*C*C*T*C*C*A*C*A*C*C*mC*mU*mU*mC*mU (mG*mG*mU*mC*mU*dC*dC*dT*dC*dC*dA*dC*dA*dC*dC*mC*mU*mU*mC*mU; antisense) [[LINC-PINT]127]	36.95%
mG*mG*mU*mG*mG*C*C*A*C*A*G*G*C*A*A*mC*mG*mU*mC*mA (GGUGGCCACAGGCAACGUCA; antisense; sugars from the 5' end m5 d10 m5, all phosphorothioate, methylation of C not given here) [[CDKN2B-AS1]2196]	48.58%
mG*mU*mC*mA*mA*A*C*C*T*A*G*A*A*A*G*mA*mA*mG*mC*mA (mG*mU*mC*mA*mA*dA*dC*dC*dT*dA*dG*dA*dA*dA*dG*mA*mA*mG*mC*mA; antisense) [[CDKN2B-AS1]1528]	68.94%
mG*mU*mC*mC*mC*A*G*G*C*C*T*C*C*A*G*mU*mG*mU*mC*mU (mG*mU*mC*mC*mC*dA*dG*dG*dC*dC*dT*dC*dC*dA*dG*mU*mG*mU*mC*mU; antisense) [[CDKN2B-AS1]2223]	74.22%
mG*mU*mC*mC*mC*A*T*C*C*C*T*T*C*T*G*mC*mU*mG*mC*mC (GUCCCATCCCTTCTGCUGCC; antisense; sugars from the 5' end m5 d10 m5, all phosphorothioate, methylation of C not given here) [[LINC-PINT]102]	113.87%
mG*mU*mC*mC*mG*T*A*C*C*T*C*C*A*C*C*mC″mA*mC*mC*mG [[LINC-PINT]727.1]	86.09%
mG*mU*mC*mU*mC*C*T*C*C*A*C*A*C*C*C*mU*mU*mC*mU*mC (mG*mU*mC*mU*mC*dC*dT*dC*dC*dA*dC*dA*dC*dC*dC*mU*mU*mC*mU*mC; antisense) [[LINC-PINT]126]	114.36%
mG*mU*mU*mC*mA*G*T*C*A*G*A*T*C*G*C*mU*mG*mG*mG*mA (mG*mU*mU*mC*mA*dG*dT*dC*dA*dG*dA*dT*dC*dG*dC*mU*mG*mG*mG*mA) [[LINC-PINT]412 KL]	93.74%
mU*mA*mA*mA*mA*T*A*A*G*G*G*G*A*A*T*mA*mG*mG*mG*mG (mU*mA*mA*mA*mA*dT*dA*dA*dG*dG*dG*dG*dA*dA*dT*mA*mG*mG*mG*mG) [[CDKN2B-AS1]80]	110.58%
mU*mC*mC*mC*mA*A*C*T*C*T*T*C*T*A*A*mC*mU*mC*mG*mU (mU*mC*mC*mC*mA*dA*dC*dT*dC*dT*dT*dC*dT*dA*dA*mC*mU*mC*mG*mU; antisense) [[LINC-PINT]1284 KL]	99.64%
mU*mC*mC*mC*mA*T*C*C*C*T*T*C*T*G*C*mU*mG*mA*mC*mA (UCCCATCCCTTCTGCUGACA; sugars from the 5' end m5 d10 m5, all phosphorothioate, methylation of C not given here) [[LINC-PINT]101]	86.62%
mU*mC*mU*mC*mC*A*T*G*T*C*C*C*A*G*G*mC*mC*mU*mC*mC (mU*mC*mU*mC*mC*dA*dT*dG*dT*dC*dC*dC*dA*dG*dG*mC*mC*mU*mC*mC; antisense) [[CDKN2B-AS1]2230]	94.78%
mU*mC*mU*mC*mU*C*T*G*G*T*C*C*C*A*T*mC*mC*mC*mU*mU (mU*mC*mU*mC*mU*dC*dT*dG*dG*dT*dC*dC*dC*dA*dT*mC*mC*mC*mU*mU; antisense) [[LINC-PINT]110]	92.39%
mU*mC*mU*mC*mU*G*G*T*C*C*C*A*T*C*C*mC*mU*mU*mC*mU (UCUCUGGTCCCATCCCUUCU; antisense; sugars from the 5' end m5 d10 m5, all phosphorothioate, methylation of C not given here) [[LINC-PINT]108]	104.65%
mU*mC*mU*mG*mG*T*C*C*C*A*T*C*C*C*T*mU*mC*mU*mG*mC (UCUGGTCCCATCCCTUCUGC; antisense; sugars from the 5' end m5 d10 m5, all phosphorothioate, methylation of C not given here) [[LINC-PINT]106]	48.75%
mU*mG*mA*mC*mA*A*A*A*C*A*A*T*A*A*T*mA*mA*mC*mA*mG (mU*mG*mA*mC*mA*dA*dA*dA*dC*dA*dA*dT*dA*dA*dT*mA*mA*mC*mA*mG) [[LINC-PINT]384]	88.79%
mU*mG*mA*mC*mA*T*T*T*C*G*T*G*G*C*T*mC*mC*mU*mA*mC (mU*mG*mA*mC*mA*dT*dT*dT*dC*dG*dT*dG*dG*dC*dT*mC*mC*mU*mA*mC; antisense) [[LINC-PINT]523 KL]	39.34%
mU*mG*mA*mU*mG*A*T*G*C*T*T*G*C*A*G*mG*mA*mG*mG*mC (mU*mG*mA*mU*mG*dA*dT*dG*dC*dT*dT*dG*dC*dA*dG*mG*mA*mG*mG*mC) [[LINC-PINT|283.1]	85.85%
mU*mG*mG*mC*mG*T*A*G*T*T*T*C*T*C*T*mU*mC*mC*mU*mC (mU*mG*mG*mC*mG*dT*dA*dG*dT*dT*dT*dC*dT*dC*dT*mU*mC*mC*mU*mC; antisense) [[LINC-PINT]937.1]	70.97%
mU*mG*mU*mG*mA*A*A*A*G*A*T*T*A*T*C*mU*mU*mC*mU*mU (UGUGAAAAGATTATCUUCUU; sugars from the 5' end m5 d10 m5, all phosphorothioate, methylation of C not given here) [[CDKN2B-AS1]2137]	40.72%
mU*mG*mU*mU*mU*C*C*C*C*G*G*A*G*A*G*mC*mA*mA*mU*mG (UGUUUCCCCGGAGAGCAAUG; antisense; sugars from the 5' end m5 d10 m5, all phosphorothioate, methylation of C not given here) [[LINC-PINT]501 KL]	57.81%
mU*mU*mA*mA*mA*T*A*A*T*C*T*A*G*T*T*mU*mG*mA*mA*mG (UUAAATAATCTAGTTUGAAG; sugars from the 5' end m5 d10 m5, all phosphorothioate, methylation of C not given here) [[CDKN2B-AS1]132]	52.20%
mU*mU*mA*mG*mC*T*C*C*T*T*G*C*C*T*C*mG*mU*mU*mC*mC (mU*mU*mA*mG*mC*dT*dC*dC*dT*dT*dG*dC*dC*dT*dC*mG*mU*mU*mC*mC; antisense) [[LINC-PINT] 1222]	63.80%
mU*mU*mC*mU*mC*T*C*T*G*G*T*C*C*C*A*mU*mC*mC*mC*mU (mU*mU*mC*mU*mC*dT*dC*dT*dG*dG*dT*dC*dC*dC*dA*mU*mC*mC*mC*mU; antisense) [[LINC-PINT]111]	77.41%
mU*mU*mG*mG*mC*C*T*G*T*G*G*A*T*G*C*mU*mU*mU*mG*mU (mU*mU*mG*mG*mC*dC*dT*dG*dT*dG*dG*dA*dT*dG*dC*mU*mU*mU*mG*mU) [[LINC-PINT]2673.1]	68.35%
mU*mU*mG*mU*mG*A*A*A*A*G*A*T*T*A*T*mC*mU*mU*mC*mU (mU*mU*mG*mU*mG*dA*dA*dA*dA*dG*dA*dT*dT*dA*dT*mC*mU*mU*mC*mU) [[CDKN2B-AS1]2138]	69.36%
mU*mU*mU*mG*mA*A*A*T*T*C*A*G*A*A*G*mA*mU*mU*mU*mG (mU*mU*mU*mG*mA*dA*dA*dT*dT*dC*dA*dG*dA*dA*dG*mA*mU*mU*mU*mG) [[LINC PINT|2690]	84.15%

Same assay, conditions: THP-1; 2′OMe or PS oligos, 100-250 nM, pre-treatment as in figure legends; ISD70 2.5 μg/ml

Substance	inhibition of ISD70-driven IP-10 production (in words)
mG*mG*mU*mC*mC*C*A*T*C*C*C*T*T*C*T*mG*mC*mU*mG*mC (GGUCCCATCCCTTCTGCUGC; sugars from the 5' end m5 d10 m5, all phosphorothioate, methylation of C not given here) [[LINC-PINT]103]	significantly inhibiting ISD70-driven IP-10 production

From patent US20240384268A1, “Oligonucleotides” (Hudson Institute of Medical Research, priority 2021, published 2024)
